Reference: patent US11420970B1 (NOVARTIS AG, priority 2019, dated 2022)
Read-outs that look alike come from different tables or passages of the source.

Columns and labels:
NSD2 [1-1365] = NSD2 [1-1365] (Homo sapiens (Human), UniProt O96028); test: LC-MS/MS-based NSD2 enzymatic assay (SAH production); assay type: biochemical; conditions: read-out: NSD2 IC50
Summary of the method: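 Full-length NSD2 [1-1365] (8 nM final) with 1 μM SAM and 400 nM mouse-liver nucleosome in Tris pH 8.0 buffer; inhibitor preincubated 20 min with enzyme/SAM before nucleosome addition. Reaction 90 min at room temperature, TFA-quenched; SAH quantified by LC-MS/MS against d4-SAH internal standard and SAH standard curve.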

[1] = test system: cellular H3K36me2 level in thyroid carcinoma cell line CGTH-W-1 (NSD2 E1099K); test: H3K36me2 cellular ELISA assay in CGTH-W-1 line; assay type: cell-based; conditions: Homo sapiens, read-out: H3K36me2 ELISA in CGTH-W-1
Procedure: H3K36Me2 Cellular ELISA Assay in CGTH-W-1 Line
An ELISA (enzyme-linked immunosorbent assay) based assay was used to test the ability of candidate compound to reduce cellular H3K36me2 level in thyroid carcinoma cell line CGTH-W-1, carrying NSD2 E1099K gain of function mutation. CGTH-W-1 (DSMZ) cells are maintained in RPM11640 media with 10% FBS and 50 U/ml Penicillin-Streptomycin.
Cells were treated with tested compounds at the desired concentration for 72 hours.
(§1) Histone bound plates were washed and blocked with 5% BSA. […] The abundance of H3K36me2 and total H3 was measured by Chemiluminesce on a plate reader. Cell viability was monitored on a parallel seeded plate with CellTiter-Glo reagent (Promega #G7573).

[2] = test system: cellular H3K36me2 level in multiple myeloma cell line KMS11 (t(4;14)+); test: H3K36me2 cellular ELISA assay in KMS11-Par line; assay type: cell-based; conditions: Homo sapiens, KMS-11; KMS11-Par line, ELISA, 72 hours; read-out: H3K36me2 ELISA in KMS11-Par
Procedure: H3K36Me2 Cellular ELISA Assay in KMS11-Par Line
An ELISA (enzyme-linked immunosorbent assay) based assay was used to test the ability of candidate compound to reduce cellular H3K36me2 level in multiple myeloma cell line KMS11 (t(4;14)+). KMS11 (Horizon Discovery Ltd.) cells are maintained in RPM11640 media with 12.5% FBS and 50 U/ml Penicillin-Streptomycin. For assay compound treatment, single cell suspension was prepared in Opti-MEM supplemented with B-27 and N2 supplement (Invitrogen 11058-021, 17504-044, 17502-048) for ELISA and in maintenance media for cellTiter Glo (CTG) viability assay. One day prior to cell treatment, 1,250 KMS11 cells were seeded into 384-well Greiner CellStar TC plate (Greiner #781086) at the final volume of 30 μL/well.
Cells were treated with tested compounds at the desired concentration for 72 hours. Crude histone lysate was extracted by 0.4M HCl following neutralization by 0.5M Sodium phosphate, dibasic (Na2HPO4), pH ˜12.5. Equal amount of histone lysate was loaded to Corning 384-well high biding plate (Corning #3577, black) for H3K36m2 and to Thermo 384-well high binding Nunc plate (Thermo #460372, white) for total H3.
as §1

Sequence of NSD2 [1-1365] (O96028 whole entry): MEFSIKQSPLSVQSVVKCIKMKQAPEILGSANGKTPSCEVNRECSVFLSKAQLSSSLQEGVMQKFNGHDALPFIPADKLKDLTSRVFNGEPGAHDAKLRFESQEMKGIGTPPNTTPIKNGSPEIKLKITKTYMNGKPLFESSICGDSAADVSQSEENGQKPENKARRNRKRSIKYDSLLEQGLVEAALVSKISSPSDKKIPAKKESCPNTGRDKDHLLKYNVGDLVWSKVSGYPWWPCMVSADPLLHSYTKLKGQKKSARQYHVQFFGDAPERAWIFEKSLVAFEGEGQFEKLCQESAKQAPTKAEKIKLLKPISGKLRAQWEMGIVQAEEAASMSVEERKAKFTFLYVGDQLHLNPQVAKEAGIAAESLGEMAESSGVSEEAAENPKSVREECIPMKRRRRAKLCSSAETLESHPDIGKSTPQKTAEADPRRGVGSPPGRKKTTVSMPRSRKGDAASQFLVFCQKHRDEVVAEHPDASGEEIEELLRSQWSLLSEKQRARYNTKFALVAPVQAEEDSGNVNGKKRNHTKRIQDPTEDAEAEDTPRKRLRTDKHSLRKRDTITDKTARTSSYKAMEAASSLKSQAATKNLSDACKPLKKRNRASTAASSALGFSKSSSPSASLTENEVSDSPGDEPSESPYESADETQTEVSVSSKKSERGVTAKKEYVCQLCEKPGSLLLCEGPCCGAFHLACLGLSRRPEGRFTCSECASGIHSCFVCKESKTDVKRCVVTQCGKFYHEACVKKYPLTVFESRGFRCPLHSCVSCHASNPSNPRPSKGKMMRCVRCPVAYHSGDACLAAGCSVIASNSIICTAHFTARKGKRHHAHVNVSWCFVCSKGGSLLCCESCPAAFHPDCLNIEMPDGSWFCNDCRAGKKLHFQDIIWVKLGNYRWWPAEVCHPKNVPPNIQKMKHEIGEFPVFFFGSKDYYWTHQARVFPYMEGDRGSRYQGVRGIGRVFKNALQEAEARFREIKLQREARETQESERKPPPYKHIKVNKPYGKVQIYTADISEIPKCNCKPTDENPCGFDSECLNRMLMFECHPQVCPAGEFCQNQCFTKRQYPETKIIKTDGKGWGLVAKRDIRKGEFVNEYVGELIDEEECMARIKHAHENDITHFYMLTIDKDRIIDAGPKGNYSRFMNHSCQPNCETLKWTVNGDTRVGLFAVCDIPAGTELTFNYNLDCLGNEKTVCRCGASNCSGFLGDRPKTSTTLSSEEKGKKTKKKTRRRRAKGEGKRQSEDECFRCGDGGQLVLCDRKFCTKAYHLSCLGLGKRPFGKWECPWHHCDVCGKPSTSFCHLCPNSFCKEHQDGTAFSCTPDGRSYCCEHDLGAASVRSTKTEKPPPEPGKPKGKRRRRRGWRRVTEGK

Structure (SMILES) | IC50 (NSD2 [1-1365]) | IC50 ([1]; CGTH-W-1 line, ELISA, 72 hours) | IC50 [2] | IC50 ([1]; CGTH-W-1, 72 h)
COc1cccc([C@@]2(N)CCCN(c3cnc(-c4ccc(F)c(F)c4)cc3Cn3cnc4c(N)ncnc43)C2)n1 [Example 178, (R)-9-((5-(3-amino-3-(6-methoxypyridin-2-yl)piperidin-1-yl)-2-(3,4-difluorophenyl)pyridin-4-yl)methyl)-9H-purin-6-amine] | 1 to 10 nM | – | – | 230 nM
Nc1ncnc2c1ncn2Cc1cc(-c2ccc3c(c2)COC3)ncc1N1CCCC(N)(c2cccc(Cl)n2)C1 (stereo not shown) [Example 179, 9-((5-(3-amino-3-(6-chloropyridin-2-yl)piperidin-1-yl)-2-(1,3-dihydroisobenzofuran-5-yl)pyridin-4-yl)methyl)-9H-purin-6-amine] | 10 to 1000 nM | – | – | 1420 nM
Nc1ncnc2c1ncn2Cc1cc(-c2ccc(OC(F)F)cc2)ncc1N1CCCC(N)(c2cccc(Cl)n2)C1 (stereo not shown) [Example 184, 9-((5-(3-amino-3-(6-chloropyridin-2-yl)piperidin-1-yl)-2-(4-(difluoromethoxy)phenyl)pyridin-4-yl)methyl)-9H-purin-6-amine] | 10 to 1000 nM | – | – | 592 nM
Nc1ncnc2c1ncn2Cc1cc(-c2ccc3c(c2)OCO3)ncc1N1CCCC(N)(c2cccc(Cl)n2)C1 (stereo not shown) [Example 186, 9-((5-(3-amino-3-(6-chloropyridin-2-yl)piperidin-1-yl)-2-(benzo[d][1,3]dioxo1-5-yl)pyridin-4-yl)methyl)-9H-purin-6-amine] | 10 to 1000 nM | – | – | 967 nM
NC(=O)c1cccc(C2(N)CCCN(c3cnc(-c4ccc(F)c(F)c4)cc3Cn3cnc4c(N)ncnc43)C2)n1 (stereo not shown) [Example 195, 6-(3-amino-1-(4-((6-amino-9H-purin-9-yl)methyl)-6-(3,4-difluorophenyl)pyridin-3-yl)piperidin-3-yl)picolinamide] | 10 to 1000 nM | – | – | 4920 nM
N#Cc1cccc(C2(N)CCCN(c3cnc(-c4ccc(F)c(F)c4)cc3Cn3cnc4c(N)ncnc43)C2)n1 (stereo not shown) [Example 208, 6-(3-amino-1-(4-((6-amino-9H-purin-9-yl)methyl)-6-(3,4-difluorophenyl)pyridin-3-yl)piperidin-3-yl)picolinonitrile] | 10 to 1000 nM | – | – | 2780 nM
Nc1ncnc2c1ncn2Cc1cc(-c2ccc(F)c(F)c2)ncc1N1CCC[C@](N)(c2ccc(OC(F)F)cn2)C1 [Example 209, (R)-9-((5-(3-amino-3-(5-(difluoromethoxy)pyridin-2-yl)piperidin-1-yl)-2-(3,4-difluorophenyl)pyridin-4-yl)methyl)-9H-purin-6-amine] | 1 to 10 nM | 324 nM | – | –
COc1ccc(-c2cc(Cn3cnc4c(N)ncnc43)c(N3CCC[C@](N)(c4cccc(Cl)n4)C3)cn2)cc1 [Example 211, (R)-9-((5-(3-amino-3-(6-chloropyridin-2-yl)piperidin-1-yl)-2-(4-methoxyphenyl)pyridin-4-yl)methyl)-9H-purin-6-amine] | 1 to 10 nM | – | – | 387 nM
Nc1ncnc2c1ncn2Cc1cc(-c2ccc(F)c(F)c2)ncc1N1CCC[C@](N)(c2cccc(O)n2)C1 [Example 217, (R)-6-(3-amino-1-(4-((6-amino-9H-purin-9-yl)methyl)-6-(3,4-difluorophenyl)pyridin-3-yl)piperidin-3-yl)pyridin-2-ol] | 1 to 10 nM | – | – | 2240 nM
Nc1ncnc2c1ncn2Cc1cc(-c2ccc(F)cc2)ncc1N1CCC[C@](N)(c2ccc(F)c(C(F)F)n2)C1 [Example 218, (R)-9-((5-(3-amino-3-(6-(difluoromethyl)-5-fluoropyridin-2-yl)piperidin-1-yl)-2-(4-fluorophenyl)pyridin-4-yl)methyl)-9H-purin-6-amine] | 10 to 1000 nM | – | – | 101 nM
Nc1nccc2c1ncn2Cc1cc(-c2ccc(F)cc2)ncc1N1CCCC(N)(c2ccccn2)C1 (stereo not shown) [Example 266, 1-((5-(3-amino-3-(pyridin-2-yl)piperidin-1-yl)-2-(4-fluorophenyl)pyridin-4-yl)methyl)-1H-imidazo[4,5-c]pyridin-4-amine] | 1 to 10 nM | – | 436 nM | –
Nc1nccc2c1ncn2Cc1cc(C2CCC2)ncc1N1CCCC(N)(c2cccc(Cl)n2)C1 (stereo not shown) [Example 267, 1-((5-(3-amino-3-(6-chloropyridin-2-yl)piperidin-1-yl)-2-cyclobutylpyridin-4-yl)methyl)-1H-imidazo[4,5-c]pyridin-4-amine] | 10 to 1000 nM | – | 1910 nM | –
Cn1cc([C@@]2(N)CCCN(c3cnc(-c4ccc(F)c(F)c4)cc3Cn3cnc4c(N)ncnc43)C2)cn1 [Example 269, (S)-9-((5-(3-amino-3-(1-methyl-1H-pyrazol-4-yl)piperidin-1-yl)-2-(3,4-difluorophenyl)pyridin-4-yl)methyl)-9H-purin-6-amine] | 1 to 10 nM | – | 5680 nM | –
Cn1cc(C2(N)CCCN(c3cnc(-c4ccc(F)c(F)c4)cc3Cn3cnc4c(N)nccc43)C2)cn1 (stereo not shown) [Example 270, 1-((5-(3-amino-3-(1-methyl-1H-pyrazol-4-yl)piperidin-1-yl)-2-(3,4-difluorophenyl)pyridin-4-yl)methyl)-1H-imidazo[4,5-c]pyridin-4-amine] | 10 to 1000 nM | – | 15300 nM | –
Nc1ncnc2c1ncn2Cc1cc(-c2ccc(F)c(F)c2)ncc1N1CCCC(N)(c2cccnc2)C1 (stereo not shown) [Example 271, 9-((5-(3-amino-3-(pyridin-3-yl)piperidin-1-yl)-2-(3,4-difluorophenyl)pyridin-4-yl)methyl)-9H-purin-6-amine] | > 1000 nM | – | 33300 nM | –
CC(C)n1ccc([C@@]2(N)CCCN(c3cnc(-c4ccc(F)cc4)cc3Cn3cnc4c(N)ncnc43)C2)n1 [Example 274, (R)-9-((5-(3-amino-3-(1-isopropyl-1H-pyrazol-3-yl)piperidin-1-yl)-2-(4-fluorophenyl)pyridin-4-yl)methyl)-9H-purin-6-amine] | 1 to 10 nM | – | 5540 nM | –

Now from value to compound, other results behind:

IC50 (NSD2 [1-1365]) | IC50 ([1]; CGTH-W-1 line, ELISA, 72 hours) | IC50 [2] | Structure (SMILES) | IC50 ([1]; CGTH-W-1, 72 h)
10 to 1000 nM | – | 2200 nM | CCn1ccc(C2(N)CCCN(c3cnc(-c4ccc(F)cc4)cc3Cn3cnc4c(N)nccc43)C2)n1 (stereo not shown) [Example 277, 1-((5-(3-amino-3-(1-ethyl-1H-pyrazo1-3-yl)piperidin-1-yl)-2-(4-fluorophenyl)pyridin-4-yl)methyl)-1H-imidazo[4,5-c]pyridin-4-amine] | –
1 to 10 nM | – | 475 nM | Nc1ncnc2c1ncn2Cc1cc(-c2ccc(F)c(F)c2)ncc1N1CCCC(N)(c2ccn(C3CC3)n2)C1 (stereo not shown) [Example 278, 9-((5-(3-amino-3-(1-cyclopropyl-1H-pyrazol-3-yl)piperidin-1-yl)-2-(3,4-difluorophenyl)pyridin-4-yl)methyl)-9H-purin-6-amine] | –
1 to 10 nM | – | 1490 nM | Nc1nccc2c1ncn2Cc1cc(-c2ccc(F)cc2)ncc1N1CCCC(N)(c2ccn(C3CC3)n2)C1 (stereo not shown) [Example 280, 1-((5-(3-amino-3-(1-cyclopropyl-1H-pyrazol-3-yl)piperidin-1-yl)-2-(4-fluorophenyl)pyridin-4-yl)methyl)-1H-imidazo[4,5-c]pyridin-4-amine] | –
10 to 1000 nM | – | 9440 nM | Nc1ncnc2c1ncn2Cc1cc(-c2ccc(F)c(F)c2)ncc1N1CCCC(N)(C=C(F)F)C1 (stereo not shown) [Example 294, 9-((5-(3-amino-3-(2,2-difluorovinyl)piperidin-1-yl)-2-(3,4-difluorophenyl)pyridin-4-yl)methyl)-9H-purin-6-amine] | –
10 to 1000 nM | – | 563 nM | Nc1ncnc2c1ncn2Cc1cc(-c2ccc(F)c(F)c2)ncc1N1CC[C@@H](O)[C@](N)(c2cccc(Cl)n2)C1 [Example 302, (3R,4R)-3-amino-1-(4-((6-amino-9H-purin-9-yl)methyl)-6-(3,4-difluorophenyl)pyridin-3-yl)-3-(6-chloropyridin-2-yl)piperidin-4-ol] | –
10 to 1000 nM | – | 27500 nM | COCC1CC(N)CN(c2cnc(-c3ccc(F)c(F)c3)cc2Cn2cnc3c(N)ncnc32)C1 (stereo not shown) [Example 308, 9-((5-(3-amino-5-(methoxymethyl)piperidin-1-yl)-2-(3,4-difluorophenyl)pyridin-4-yl)methyl)-9H-purin-6-amine] | –
10 to 1000 nM | – | > 33700 nM | CN(C)C(=O)CC[C@@]1(N)CCCN(c2cnc(-c3ccc(F)c(F)c3)cc2Cn2cnc3c(N)ncnc32)C1 [Example 322, (S)-3-(3-amino-1-(4-((6-amino-9H-purin-9-yl)methyl)-6-(3,4-difluorophenyl)pyridin-3-yl)piperidin-3-yl)-N,N-dimethylpropanamide] | –
